Laboratory results as given in ChEMBL document CHEMBL1149636.

Biological target: Carbonic anhydrase 4 (Homo sapiens) (UniProt P22748)
Sequence (P22748 whole entry): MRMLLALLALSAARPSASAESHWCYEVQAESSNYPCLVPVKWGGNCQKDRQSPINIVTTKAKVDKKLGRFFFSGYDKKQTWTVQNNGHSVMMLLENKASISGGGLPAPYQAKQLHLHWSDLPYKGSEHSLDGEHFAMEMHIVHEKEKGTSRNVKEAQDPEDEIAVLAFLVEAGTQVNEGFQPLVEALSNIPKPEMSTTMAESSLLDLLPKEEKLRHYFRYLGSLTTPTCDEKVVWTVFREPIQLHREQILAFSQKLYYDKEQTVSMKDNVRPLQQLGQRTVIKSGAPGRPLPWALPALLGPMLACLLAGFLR
Description: Inhibition of human recombinant full length CA4 by stopped-flow technique

Kinact: 3.95 µM
Structure (SMILES): CCNC1CN(CCCOC)S(=O)(=O)c2sc(S(N)(=O)=O)cc21 (single isomer, unassigned)
